Data: US6747013B2, “Therapy for cellular accumulation in chronic inflammatory diseases” (The Regents of the University of California, priority 1995, dated 2004)
Numbered stars: 1 amine (or outer) side, 2 acyl side, 3 side chain; on linkers, the order of the positions; unused ones are H or OH. Bridge positions count the residues as written; N and C are the ends. Square brackets hold non-standard residues; d marks the D form. Peptide text beside a SMILES is read from it. I, II: the chains in the order shown. Actinocin(9to1) = Cc1c2oc3c(C)ccc(C(=O)[*:1])c3nc-2c(C(=O)[*:2])c(N)c1=O; NMeV = CN[C@H](C(=O)O)C(C)C; Sar = CNCC(=O)O

Legend:
[1] = tested on: fibroblast-like synoviocytes (FLS); experiment: ISEL assay of apoptosis (DNA fragmentation) in cultured fibroblast-like synoviocytes; type: cell-based, human; details: for % apoptotic cells Without IFN-gamma (100 U/ml) / % apoptotic cells With IFN-gamma: FLS incubated with mediator for 16 h, n = 3, ISEL assay; for % apoptotic cells Without IFN-gamma (100 U/ml): 'Without IFN-gamma (100 U/ml)' [sic]; for % apoptotic cells With IFN-gamma: concentrations: IL-1 1 ng/ml, TNF-alpha 100 ng/ml, act D 0.5 ug/ml, anti-fas 80 ng/ml; for DNA fragmentation in FLS (ISEL assay), in words: cultured FLS in chamber slides, agent alone; for effect of combination on FLS apoptosis, in words: in combination with other apoptosis-inducing factors
Procedure: Fragmented DNA was detected in cell nuclei using a modification of previously described methods (Wood et a., Neuron., 11:621-32, 1993 and Wijsman et al., J. Histochem. Cytochem. 41:7-12, 1993). Frozen section of synovial tissue (5-6 microns thick) were placed onto poly-L-lysine coated slides and air dried for at least 2 hours. The tissue sections were then fixed with EtOH/Acetic acid 3:1 for 10 min at room temperature and washed with buffer 1 (see below) for 5 min. The slides were then air dried 1 or at least 2 h. 10-15 ul of DNA polymerase mix were added to each section and incubated at room temperature for 1 h. The sections were washed with buffer 1 (see below) for 5 min at room temperature followed by a wash in buffer 2 for 5 min.
Alkaline phosphatase conjugated anti-digoxigenin antibody was diluted to 1:500 in buffer 2 and 15-20 ul was applied to each specimen. The slides were incubated at 37° C. for 2 hrs in a humidified chamber and then washed with buffer 1 for 5 min. They were then equilibrated with buffer 3 for 5 min and the color reagent (NBT+BCIP) was added to the specimens. After about 30 min the slides were washed with distilled water, counterstained with eosin or methyl green and dehydrated with graded alcohol washes. The developing reagent gave a dark purple color for positive signals. Buffers: 10× DNA polymerase buffer=0.5M Tris.Cl pH7.5, 0.1M MgCl2, 1 mM DTT; 10× nucleotide mix=1 mM each of dATP, dCTP and dGTP, 0.4 mM dTTP; DNA polymerase mix=10× DNA pol buffer (2 ul), […] nucleotide mix (2 ul); 100 uM dig-11-dUTP (0.5 ul), Klenow polymerase (2 ul (2 U)), Water (13.5 ul); Buffer 1=100 mM Tris.Cl pH7.5, 150 mM NaCl; Buffer 2=0.5% Blocking agent in buffer 1, Buffer 3=100 […]. Quantification of ISEL assay. A semiquantitative scale was used to estimate the degree of ISEL staining in tissue sections that had been counterstained with methyl green to distinguish ISEL-positive and -negative cells. Four areas were reviewed by a blinded investigator: the synovial intimal lining, the sublining, blood vessels, and lymphoid aggregates. The extent of staining in the area was estimated and scored as using a previously established semiquantitative scale.
Synovial cells were isolated by enzymatic dispersion of synovial tissues as previously described (Alvaro-Gracia, et al., supra). Briefly, the tissues were minced and incubated with 1 mg/ml collagenase in serum-free DMEM (Gibco, Grand Island, N.Y.) for 2 h at 37° C., filtered through a nylon mesh, extensively washed, and cultured in DMEM supplemented with 10% fetal calf serum (FCS) (Gibco, endotoxin content <0.006 ng/ml), penicillin, streptomycin, and L-glutamine in a humidified 5% Co2 atmosphere. After overnight culture, non-adherent cells were removed and adherent cells were cultivated in DMEM plus 10% FCS.
At confluence, cells were trypsinized, split at a 1:3 ratio, and recultured in medium. Synoviocytes were used from passages 3 through 9 in these experiments, during which time they were a homogeneous population of fibroblast-like synoviocytes (FLS)(<1% CD11b, <1% phagocytic, and <1% Fc-gamma RII receptor positive).
(§1) The presence of CD68-negative apoptotic cells in the synovial lining prompted an analysis of the regulation of FLS apoptosis in vitro. […] Osteoarthritis and rheumatoid arthritis-derived FLS were equally susceptible to induction of DNA strand breaks.

Rheumatoid arthritis FLS = experiment: 3HdTr nuclear fragmentation assay; type: cell-based, human; details: FIG. 8; cytokines or antibodies 8 h, act D 4 h
Procedure: Rheumatoid arthritis FLS were seeded at 10^4 cells/well in a 96-well microtiter plate. The cells were cultured at 37° C. and 5% CO2 for 2 days. On the third day, 10 uCi/ml/well of 3HdTR was added to each well and incubated overnight. The cells were then treated with different concentrations of cytokines or antibodies for 8 h or actinomycin D (act D) for 4 h and then lysed by 2 rounds of freeze-thaw cycles. Lysed cells and media were aspirated onto fiber glass filters using a cell harvester. The filters were washed to remove unincorporated nucleotides and counted in a liquid scintillation counter. All points were done in triplicates. Percent specific fragmentation was calculated as follows: (S-E)×100/S, where E=retained cpms on the filter in the presence of cytokine and S=retained cpms on the filter in the medium control (Matzinger, P., J. Immunological Methods 145:185-92, 1991).
as §1

p53 in RA FLS = details: 8-9 hr after stimulating with H2O2 for 100 min; n=3; medium alone 10.7±2.4%
Procedure: (§2) The intracellular location of p53 protein is an important determinant of its functional capabilities. It is known that p53 can reside in the cytoplasm (generally bound to hsc70) but is transported to the nucleus after DNA damage or proliferative signals. […] Immunohistochemistry was then performed on cultured RA FLS to determine the subcellular localization of p53.

[2] = tested on: p53 in dermal fibroblasts; details: after exposure to H2O2; before 5±11%
Procedure: as §2

Fas on FLS = experiment: Surface Fas expression on FLS by flow cytometry (FACS); type: cell-based, human; details: IL-1beta 1 ng/ml or TNF-alpha 100 ng/ml for 16 to 24 hours; pooled RA and OA FLS
Procedure: FLS (1-2×105) were cultured in 6-well plastic dishes (Costar, Cambridge, Mass.) in DMEM-10% FCS. Cells were harvested with 5 mM EDTA at 4° C. and stained with anti-fas or control antibody (Kamiya Biomedical Co., Thousand Oaks, Calif.) as previously described (Alvaro-Gracia, et al., supra). Phycoerythrin conjugated Fab2 anti-mouse IgG (Tago Inc. Burlingame, Calif.) was used as a secondary antibody. An isotype matched MAb was used as negative control. Induction of Fas expression by cytokines was calculated from the mean fluorescence channels (MFC) as follows: relative MFC=(MF(Ccytokine-MFClgG)/(MFCmedium-MFClgG). A cell was defined a positive if its MFC was greater than 98% of cells stained with the control antibody. Statistical analysis. Data were analyzed using the paired Student t test and are presented as mean+SEM.
Since anti-fas antibody induced DNA fragmentation in FLS, fas expression was determined on these cells using flow cytometry. Many FLS constitutively expressed Fas protein on the cell surface (see FIG. 9 for a representative experiment (n=7; 4 rheumatoid arthritis and 3 osteoarthritis)). There were no significant differences between osteoarthritis and rheumatoid arthritis FLS with regard to the level of surface Fas expression on resting synoviocytes. […]

mouse air pouch tissue = experiment: Mouse air pouch model of inflammation with TUNEL staining; type: in vivo; details: 3 ml of 1% carrageenan into pouch, two days after injection
Procedure: In this standard model, mice were lightly anesthetized with halothane and 3 ml of sterile filtered air was injected subcutaneously into the back, forming a pocket. This procedure was repeated twice over the next 5 days to form a mature pouch. Subsequently, 3 ml of 1% carrageenan was injected into the pouches. Carrageenan is a highly inflammatory natural substance that, when injected into body cavities, induces leukocyte recruitment, cytokine gene expression, and release of a variety of small molecule mediators. Two days after carrageenan injection, the mice were sacrificed and the pouches were removed. The excised pouches were fixed in formaldehyde and histologic sections were prepared. The sections were subsequently stained using the TUNEL technique (Wood, et al., Neuron, 11:621, 1993) to identify cells with fragmented DNA that were undergoing apoptosis.

With Cc1c2oc3c(C)ccc(C(=O)N[C@@H]4C(=O)N[C@H](C(C)C)C(=O)N5CCC[C@H]5C(=O)N(C)CC(=O)N(C)[C@@H](C(C)C)C(=O)O[C@@H]4C)c3nc-2c(C(=O)N[C@@H]2C(=O)N[C@H](C(C)C)C(=O)N3CCC[C@H]3C(=O)N(C)CC(=O)N(C)[C@@H](C(C)C)C(=O)O[C@@H]2C)c(N)c1=O [actinomycin D, reference compound] (I: T[dV]P[Sar][NMeV] / II: T[dV]P[Sar][NMeV]; ester I:1-I:C, II:1-II:C; linker I:N-II:N via Actinocin(9to1)) the “% apoptotic cells Without IFN-gamma (100 U/ml)” value [1] was 6 ± 3 %, the “% apoptotic cells With IFN-gamma” value [1] was 37 ± 5% and the “DNA fragmentation in FLS (ISEL assay), in words” value (shortened to “DNA fragmentation in FLS”) [1] was “caused significant DNA fragmentation”. The “DNA fragmentation in cultured FLS (3HdTr nuclear fragmentation), in words” value (“DNA fragmentation in cultured FLS” below) (Rheumatoid arthritis FLS) was “caused DNA fragmentation”.

With OO [hydrogen peroxide] the “% of FLS with prominent nuclear p53 staining” value (p53 in RA FLS) was 70.7±12.8% and the “% of dermal fibroblasts with nuclear p53 staining” value [2] was 75±17%.

With “IL-1: Recombinant hIL-1 beta, cytokine purchased from Genzyme” the “% apoptotic cells Without IFN-gamma (100 U/ml)” value [1] was 0 ± 2 %, the “% apoptotic cells With IFN-gamma” value [1] was 50 ± 2% and the “DNA fragmentation in FLS” value [1] was “caused significant DNA fragmentation”. For the same molecule, the “DNA fragmentation in cultured FLS” value (Rheumatoid arthritis FLS) was “caused DNA fragmentation” and the “surface Fas expression on FLS, in words” value (Fas on FLS) was “slight increase, the difference did not reach statistical significance”.

For TNF-alpha, the “% apoptotic cells Without IFN-gamma (100 U/ml)” value [1] was 3 ± 2 %, the “% apoptotic cells With IFN-gamma” value [1] was 35 ± 1% and the “DNA fragmentation in FLS” value [1] was “caused significant DNA fragmentation”. The “effect of combination on FLS apoptosis, in words” value [1] was “additive with actinomycin D”, the “DNA fragmentation in cultured FLS” value (Rheumatoid arthritis FLS) was “caused DNA fragmentation” and the “surface Fas expression on FLS, in words” value (Fas on FLS) was “significantly increased surface Fas expression”.

With carrageenan the “TUNEL-positive cells in air pouch tissue, in words” value (mouse air pouch tissue) was “large foci of TUNEL-positive cells were present” and the “inflammatory infiltration of the air pouch, in words” value (mouse air pouch tissue) was “an inflammatory exudate was present”.

B1: IFN-gamma: recombinant human IFN-gamma, cytokine purchased from Genzyme (protein, UniProt P01579 24-161, looked up)
Interferon gamma: QDPYVKEAENLKKYFNAGHSDVADNGTLFLGILKNWKEESDRKIMQSQIVSFYFKLFKNFKDDQSIQKSVETIKEDMNVKFFNSNKKKRDDFEKLTNYSVTDLNVQRKAIHELIQVMAELSPAAKTGKRKRSQMLFRG
B1 was tested, and the “% apoptotic cells Without IFN-gamma (100 U/ml)” value [1] was 6 ± 2%, the “DNA fragmentation in FLS” value [1] was “minimal effect” and the “effect of combination on FLS apoptosis, in words” value [1] was “significantly reduced FLS apoptosis”.
